Values after ≈ are worked out from the molar mass of the structure shown. Read-outs that look alike come from different tables or passages of the source. Where a SMILES comes first, the peptide text is derived from it. [ ]: non-standard residue; d: D form.
Legend:
[1] = tested on: S. aureus (NCTC 13277); assay: microbe, parasite or virus in culture; settings: Staphylococcus aureus, NCTC13277, read-out: MIC S. aureus (NCTC 13277)
[2] = tested on: P. aeruginosa (ATCC 10145); assay: Antibacterial broth microdilution MIC assay; type: cell-based, Pseudomonas aeruginosa; settings: >99% inhibition of growth, MH broth, 20-22 h, 37 °C
Experimental: (§1) The antibacterial activity of peptide analogs was tested against different bacterial strains, i.e., Salmonella enterica subsp. enterica serotype Typhimurium or Salmonella typhi (ATCC 14028), Staphylococcus aureus (NCTC 13277), Bacillus subtilis (ATCC 23857), Escherichia coli (ATCC 25922), and Pseudomonas aeruginosa (ATCC 10145). These strains were obtained from the microbial bank of Dr. Panjwani Center for Molecular Medicine and Drug research (PCMD), International Center for Chemical and Biological Sciences (ICCBS), University of Karachi. Colonies of these bacterial strains were grown in respective agar media, then inoculated in Mueller Hinton (MH) broth (Oxoid, UK) and incubated at 37 °C overnight. The peptide solutions were first diluted 1 in 100 (from the stock solution at 20 mM) and then further two-fold dilution in MH broth in a sterile 96-well plate was performed, resulting in 100 µL of broth containing increasing concentrations of analogs. Bacteria in their exponential growth phase were diluted in MH broth, and 100 µL of this suspension was added in each well. […] Then, these plates were incubated at 37 °C for 20–22 h. MIC (Minimum Inhibitory Concentration) values were determined as the concentrations of peptides causing >99% inhibition of bacterial growth.

[3] = tested on: S. typhi (ATCC 14028); assay: microbe, parasite or virus in culture; settings: Salmonella enterica, read-out: MIC S. typhi (ATCC 14028)
[4] = tested on: human cervical cancer (HeLa) cells; assay: cells; type: cell-based; settings: MTT, 24 h exposure, read-out: IC50 on Cervical Cancer (HeLa)
Experimental: (§2) Human breast cancer (MCF-7) and human cervical cancer (HeLa) cells were obtained from the cell culture bank of PCMD in ICCBS, University of Karachi. These cells were maintained in Dulbecco’s Modified Eagle Medium (DMEM), supplemented with 10% fetal bovine serum, and incubated at 37 °C and 5% CO2. The antiproliferative activity of the samples was determined by a MTT assay. Briefly, the cells were washed with PBS and trypsinized. After determination of the cell number using Malassez cell counting, 100 µL of the cell suspension were seeded in a 96-well plate at the density of 6000 cells/well and incubated at 37 °C and 5% CO2. After 24 h, the cells were treated with increasing concentrations of analogs. The next day, media was removed and 200 µL of MTT dye (0.5 mg/mL) was added in each well and incubated for 3 h at 37 °C in 5% CO2 incubator. Then, the media was removed and 100 µL of DMSO was added to solubilize formazan crystals. After one minute of shaking, the absorbance was recorded at 540 nm in microplate reader (Multiskan GO, ThermoScientific, Waltham, MA, USA). Finally, the percent inhibition of proliferation was calculated using the following formula: % inhibition of proliferation=O.D of treated well−O.D of media control/O.D of untreated control−O.D of media control×100

[5] = tested on: Human breast cancer (MCF-7) cells; assay: cells; type: cell-based
Experimental: as §2

[6] = tested on: B. subtilis (ATCC 23857); assay: Antibacterial broth microdilution MIC assay; type: cell-based, Bacillus subtilis; settings: >99% inhibition of growth, MH broth, 20-22 h, 37 °C
Experimental: as §1

[7] = tested on: human red blood cells (RBC); assay: Hemolytic assay; type: cell-based; settings: 1 h
Experimental: For the hemolytic assay, fresh human blood (2 mL) was obtained from a healthy donor in EDTA tube while following the protocol of approval from the Independent Ethics Committee of ICCBS (approval number ICCBS/IEC-047-HB-2019/Protocol/1.0). The blood was centrifuged and upper supernatant plasma was removed. The cell pellets were washed with sterile PBS three times. The washed blood cells were then diluted 25 times to make 4% concentration of the initial blood cells. Red blood cells (500 µL) were treated with increasing concentrations of analogs, with triton X-100 at 0.1% being used as positive control giving 100% hemolysis. After 1 h of incubation at 37 °C, tubes were centrifuged at 800 rpm for 5 min to pellet down red blood cells. After centrifugation, 200 µL of supernatant were transferred into a 96 well plate and the absorbance was recorded at 576 nm using a microplate reader (MultiSkan Go, ThermoScientific). Then, the following formula was applied to calculate percent hemolysis: % Hemolysis=O.D of test sample−O.D of PBS control/O.D of Tritox×positive control−O.D of PBS control×100

[8] = tested on: E. coli (ATCC 25922); assay: Antibacterial broth microdilution MIC assay; type: cell-based, Escherichia coli; settings: >99% inhibition of growth, MH broth, 20-22 h, 37 °C
Experimental: as §1

[9] = tested on: C. albicans (ATCC 36082); assay: microbe, parasite or virus in culture
Experimental: Candida albicans (ATCC 36082) was cultured on Sabourad Dextrose Agar (SDA). A single colony was inoculated in Sabouraud Dextrose Broth (SDB) medium and grown overnight at 37 °C while shaking. The next day, the susceptibility of C. albicans was tested using a broth microdilution assay. Peptide analogs were diluted in SDB media by two-fold dilution, resulting in 100 µL of medium containing increasing concentrations of analogs. The overnight culture (turbidity at OD600 = 1) was 1000× diluted in SDB. Then 100 µL of this suspension was added to each well, resulting in a final 200 µL suspension containing 2–4 × 10^5 CFU/mL. The plate was incubated at 37 °C for 24 h. The next day, MIC (Minimum Inhibitory Concentration) values were determined as the concentrations of peptides causing > 99% inhibition of yeast growth.

[10] = tested on: human red blood cells (RBC); settings: previously reported; cited from earlier work
[11] = tested on: S. typhi (ATCC 14028); settings: ATCC 14028
[12] = tested on: S. aureus (NCTC 13277); settings: >99% inhibition of growth, MH broth, 20-22 h, 37 °C

Structure (SMILES) | MIC [1] [µM] | MIC ([2]; Pseudomonas aeruginosa, ATCC10145) [µM] | MIC [3] [µM] | IC50 ([4]; Homo sapiens, HeLa) [µM] | IC50 ([5]; Homo sapiens, MCF7, MTT, 24 h exposure, read-out: IC50 on Breast Cancer (MCF-7)) [µM] | MIC ([6]; Bacillus subtilis, ATCC23857) [µM] | HC50 on Human Red Blood Cells (RBCs) ([7]; human) [µM] | MIC ([8]; Escherichia coli, ATCC25922) [µM] | MIC ([9]; Candida albicans, ATCC36082, 24 h, read-out: MIC C. albicans (ATCC 36082)) [µM] | hemolysis HC50 [10] [µM] | MIC S. typhi (ATCC 14028) [11] [µM] | MIC [2] [µM] | MIC S. aureus (NCTC 13277) [12] [µM] | IC50 [4] [µM] | IC50 ([5]; lowest IC50 on cancer cells = MCF-7 (peptides 1, 2, 7), from Table 5, read-out: Lower IC50) [µM] | MIC [6] [µM] | HC50 on Human Red Blood Cells (RBCs) ([7]; 37 °C, 0.1% triton X-100 = 100% hemolysis) [µM] | MIC [8] [µM] | MIC C. albicans (ATCC 36082) ([9]; >99% inhibition of yeast growth, SDB, 24 h, 37 °C) [µM]
C[C@H]1COc2c(N3CCN(C)CC3)c(F)cc3c(=O)c(C(=O)O)cn1c23 [Levofloxacin, reference compound] | 25 (≈ 9.03 µg/mL) | 1.56 (≈ 0.564 µg/mL) | 0.39 (≈ 0.141 µg/mL) | > 100 | > 100 | 0.39 (≈ 0.141 µg/mL) | >100 | 0.78 (≈ 0.282 µg/mL) | > 250 | – | – | – | – | – | – | – | – | – | –
CC[C@H](C)[C@H](NC(=O)[C@@H](C)NC(=O)[C@H](CO)NC(=O)[C@H](CC(C)C)NC(=O)[C@@H](N)Cc1ccccc1)C(=O)N[C@H](C(=O)NCC(=O)N[C@@H](CCSC)C(=O)N[C@@H](CC(C)C)C(=O)NCC(=O)N[C@@H](CCCCN)C(=O)N[C@@H](CC(C)C)C(=O)N[C@@H](Cc1ccccc1)C(N)=O)C(C)C [NST-2 (1), H-Phe^1-Leu^2-Ser^3-D-Ala^4-Ile^5-Val^6-Gly^7-Met^8-Leu^9-Gly^10-Lys^11-Leu^12-Phe^13-NH2] (H-FLS[dA]IVGMLGKLF-NH2) | – | – | – | – | – | – | – | – | – | 90.0 | 250 (≈ 349 µg/mL) | >250 | 14.34 (≈ 20 µg/mL) | > 100 | 17.9 | 6.25 (≈ 8.72 µg/mL) | 90.0 | 125 (≈ 174 µg/mL) | 20 (≈ 27.9 µg/mL)
